From the NIST ThermoML archive (doi:10.1021/je200811n)

Details: Hot wire method

F/C=C/C(F)(F)F [trans-1,3,3,3-tetrafluoropropene]
Details | thermal conductivity [W/m/K]
312.25 K, 581 kPa, Gas | 0.01478
312.31 K, 325 kPa, Gas | 0.01497
312.4 K, 200 kPa, Gas | 0.01456
312.41 K, 431 kPa, Gas | 0.01481
312.43 K, 101 kPa, Gas | 0.0144
312.48 K, 326 kPa, Gas | 0.01471
312.57 K, 582 kPa, Gas | 0.01477
312.62 K, 200 kPa, Gas | 0.0149
312.73 K, 430 kPa, Gas | 0.01467
312.8 K, 102 kPa, Gas | 0.01504
312.83 K, 325 kPa, Gas | 0.01474
312.92 K, 584 kPa, Gas | 0.01483
312.98 K, 200 kPa, Gas | 0.01488
313.1 K, 428 kPa, Gas | 0.01481
313.2 K, 102 kPa, Gas | 0.01509
313.2 K, 325 kPa, Gas | 0.01472
313.27 K, 585 kPa, Gas | 0.01483
313.39 K, 200 kPa, Gas | 0.01487
313.49 K, 429 kPa, Gas | 0.01476
313.6 K, 325 kPa, Gas | 0.01477
313.64 K, 102 kPa, Gas | 0.01508
313.67 K, 586 kPa, Gas | 0.01487
313.81 K, 200 kPa, Gas | 0.01496
313.88 K, 428 kPa, Gas | 0.01479
314.02 K, 325 kPa, Gas | 0.01482
314.08 K, 101 kPa, Gas | 0.01511
314.25 K, 200 kPa, Gas | 0.01496
314.56 K, 101 kPa, Gas | 0.01518
320.95 K, 10241 kPa, Liquid | 0.07419
320.95 K, 15330 kPa, Liquid | 0.07758
321 K, 1074 kPa, Liquid | 0.06717
321 K, 15328 kPa, Liquid | 0.07747
321 K, 15398 kPa, Liquid | 0.07709
321 K, 21637 kPa, Liquid | 0.08122
321.01 K, 5363 kPa, Liquid | 0.07064
321.01 K, 10238 kPa, Liquid | 0.07408
321.06 K, 1073 kPa, Liquid | 0.06692
321.06 K, 15400 kPa, Liquid | 0.07715
321.06 K, 21630 kPa, Liquid | 0.08106
321.08 K, 5360 kPa, Liquid | 0.07051
321.23 K, 96 kPa, Gas | 0.01565
321.24 K, 193 kPa, Gas | 0.01579
321.26 K, 302 kPa, Gas | 0.01598
321.31 K, 15324 kPa, Liquid | 0.07738
321.32 K, 10235 kPa, Liquid | 0.07406
321.34 K, 21627 kPa, Liquid | 0.08112
321.35 K, 1071 kPa, Liquid | 0.06648
321.36 K, 15404 kPa, Liquid | 0.0766
321.37 K, 5451 kPa, Liquid | 0.07074
321.39 K, 15326 kPa, Liquid | 0.07727
321.4 K, 5358 kPa, Liquid | 0.07043
321.42 K, 10233 kPa, Liquid | 0.07383
321.43 K, 1070 kPa, Liquid | 0.06675
321.43 K, 21621 kPa, Liquid | 0.08087
321.44 K, 5449 kPa, Liquid | 0.07064
321.45 K, 96 kPa, Gas | 0.01549
321.45 K, 15400 kPa, Liquid | 0.07716
321.46 K, 193 kPa, Gas | 0.01564
321.48 K, 301 kPa, Gas | 0.01576
321.5 K, 5355 kPa, Liquid | 0.07013
321.69 K, 96 kPa, Gas | 0.01537
321.69 K, 193 kPa, Gas | 0.01553
321.69 K, 301 kPa, Gas | 0.01571
321.73 K, 15326 kPa, Liquid | 0.07718
321.74 K, 21616 kPa, Liquid | 0.08084
321.76 K, 10233 kPa, Liquid | 0.07335
321.77 K, 1068 kPa, Liquid | 0.06659
321.77 K, 5449 kPa, Liquid | 0.07051
321.77 K, 15389 kPa, Liquid | 0.07714
321.85 K, 15325 kPa, Liquid | 0.077
321.85 K, 21616 kPa, Liquid | 0.08065
321.86 K, 5352 kPa, Liquid | 0.07024
321.87 K, 1067 kPa, Liquid | 0.06647
321.87 K, 5446 kPa, Liquid | 0.07039
321.88 K, 10232 kPa, Liquid | 0.07374
321.89 K, 15379 kPa, Liquid | 0.07673
321.93 K, 96 kPa, Gas | 0.01526
321.93 K, 301 kPa, Gas | 0.0156
321.94 K, 193 kPa, Gas | 0.01541
321.94 K, 862 kPa, Gas | 0.01585
321.98 K, 5353 kPa, Liquid | 0.07002
322.01 K, 717 kPa, Gas | 0.01564
322.18 K, 301 kPa, Gas | 0.01554
322.19 K, 193 kPa, Gas | 0.01534
322.19 K, 21613 kPa, Liquid | 0.0806
322.2 K, 15324 kPa, Liquid | 0.07701
322.23 K, 861 kPa, Gas | 0.01583
322.24 K, 5447 kPa, Liquid | 0.07031
322.25 K, 432 kPa, Gas | 0.01554
322.25 K, 1068 kPa, Liquid | 0.06595
322.25 K, 10235 kPa, Liquid | 0.0737
322.25 K, 15372 kPa, Liquid | 0.07646
322.27 K, 889 kPa, Gas | 0.01589
322.32 K, 715 kPa, Gas | 0.01567
322.32 K, 21607 kPa, Liquid | 0.08044
322.34 K, 302 kPa, Gas | 0.01575
322.34 K, 15322 kPa, Liquid | 0.0768
322.35 K, 5442 kPa, Liquid | 0.07009
322.37 K, 5357 kPa, Liquid | 0.07003
322.38 K, 1067 kPa, Liquid | 0.06625
322.4 K, 10234 kPa, Liquid | 0.07347
322.48 K, 588 kPa, Gas | 0.01563
322.52 K, 5368 kPa, Liquid | 0.06983
322.55 K, 859 kPa, Gas | 0.01582
322.57 K, 432 kPa, Gas | 0.01556
322.58 K, 886 kPa, Gas | 0.01586
322.65 K, 713 kPa, Gas | 0.01571
322.69 K, 301 kPa, Gas | 0.01554
322.7 K, 21605 kPa, Liquid | 0.08035
322.73 K, 15322 kPa, Liquid | 0.07671
322.75 K, 5443 kPa, Liquid | 0.07003
322.79 K, 1065 kPa, Liquid | 0.06618
322.8 K, 10233 kPa, Liquid | 0.07327
322.81 K, 193 kPa, Gas | 0.01577

Details | thermal conductivity [W/m/K]
313.15 K, Liquid | 0.06932
